Source: EP0942754B1, “CONJUGATES USEFUL IN THE TREATMENT OF PROSTATE CANCER” (priority 1996, dated 1998)
Non-standard residues stand in square brackets, D forms with d. Residues, ends and D or L forms follow the SMILES beside them. *: point of attachment. Doxorubicin(3'-N) = COc1cccc2c1C(=O)c1c(O)c3c(c(O)c1C2=O)C[C@@](O)(C(=O)CO)C[C@@H]3O[C@H]1C[C@H](N*)[C@H](O)[C@H](C)O1; Hyp = O=C(O)[C@@H]1C[C@@H](O)CN1; tBuAla = CC(C)(C)C[C@H](N)C(=O)O; Chg = N[C@H](C(=O)O)C1CCCCC1

Legend:
[1] = molecular target: T1, enzymatically active free PSA (Homo sapiens, UniProt P07288); assay: Recognition of oligopeptide-doxorubicin conjugates by free PSA (HPLC, time to 50% cleavage); format: biochemical; conditions: conjugate added to PSA at a molar ratio of 100 to 1 in PSA digestion buffer; free conjugate tested
T1 construct: enzymatically active free PSA
Method: The conjugates prepared as described in Examples 3-5 were individually dissolved in PSA digestion buffer (12 mM tris(hydroxymethyl)-aminomethane pH8.0, 25 mM NaCl, 0.5 mM CaCl2) and the solution added to PSA at a molar ration of 100 to 1. Alternatively, the PSA digestion buffer utilized is 50 mM tris(hydroxymethyl)-aminomethane pH7.4, 140 mM NaCl. The reaction is quenched after various reaction times by the addition of trifluoroacetic acid (TFA) to a final 1% (volume/volume). Alternatively the reaction is quenched with 10mM ZnCl2. The quenched reaction was analyzed by HPLC on a reversed-phase C18 column using an aqueous 0.1%TFA/acetonitrile gradient. […] If no salt is indicated for the conjugate, the free conjugate was tested. The oligopeptide-cytotoxic agent conjugates described in Examples 4 and 5 were assessed for the amount of time (in minutes) required for 50% cleavage of the oligopeptide with enzymatically active free PSA and 50% cleavage occurred in less than 2 hours for those conjugates.

DuPRO cells = assay: In vitro cytotoxicity of peptidyl derivatives of doxorubicin, Alamar Blue assay, DuPRO cells; format: cell-based; conditions: DuPRO cells (value in parentheses in the LNCaP column), 72 HRS incubation, read-out: Cell Kill in 72 HRS EC 50 (µM), DuPRO
Method: (§1) The cytotoxicities of the cleaveable oligopeptide-doxorubicin conjugates, prepared as described in Examples 3 and 4, against a line of cells which is known to be killed by unmodified doxorubicin were assessed with an Alamar Blue assay. Specifically, cell cultures of LNCap prostate tumor cells (which express enzymatically active PSA) or DuPRO cells in 96 well plates was diluted with medium ([…]-α [MEM-α]) containing various concentrations of a given conjugate (final plate well volume of 200µl). The cells were incubated for 3 days at 37°C, 20µl of Alamar Blue is added to the assay well. The cells were further incubated and the assay plates were read on a EL-310 ELISA reader at the dual wavelengths of 570 and 600 nm at 4 and 7 hours after addition of Alamar Blue. Relative percentage viability at the various concentration of conjugate tested was then calculated versus control (no conjugate) cultures. If no salt is indicated, the free conjugate was tested.

[2] = test system: LNCap prostate tumor cells (which express enzymatically active PSA); assay: In vitro cytotoxicity of peptidyl derivatives of doxorubicin, Alamar Blue assay, LNCaP cells; format: cell-based; conditions: 72 HRS incubation, free conjugate tested, read-out: LNCaP Cell Kill in 72 HRS EC 50
Method: as §1

T1 sequence (P07288 25-261): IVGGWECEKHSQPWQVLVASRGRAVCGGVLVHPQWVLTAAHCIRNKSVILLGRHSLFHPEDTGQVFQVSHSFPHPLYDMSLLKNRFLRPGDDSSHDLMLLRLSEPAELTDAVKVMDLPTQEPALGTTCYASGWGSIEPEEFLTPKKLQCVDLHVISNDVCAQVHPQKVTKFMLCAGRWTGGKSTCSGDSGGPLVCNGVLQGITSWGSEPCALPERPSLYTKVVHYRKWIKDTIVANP

Row | Compound | Time to 50% Substrate Cleavage by PSA [1] [min] | Time to 50% Substrate Cleavage by PSA (Min) [1] | EC50 (DuPRO cells) [µM] | EC50 [2] [µM]
1 | PEG(2)-(4-trans-L-Hyp)ASChgQ-SL-DOX (3') | 20 |  |  | 
2 | Ac-(4-trans-L-Hyp)ASChgQ-SThi-DOX (3') |  | INSOLUBLE |  | 
3 | COc1cccc2c1C(=O)c1c(O)c3c(c(O)c1C2=O)C[C@@](O)(C(=O)CO)C[C@@H]3O[C@H]1C[C@H](NC(=O)[C@H](CC(C)(C)C)NC(=O)[C@H](CO)NC(=O)[C@H](CCC(N)=O)NC(=O)[C@@H](NC(=O)[C@H](CO)NC(=O)[C@H](C)NC(=O)[C@@H]2C[C@@H](O)CN2C(C)=O)C2CCCCC2)[C@H](O)[C@H](C)O1 [Ac-(4-trans-L-Hyp)ASChgQ-StBuAla-DOX (3')] (Ac-[Hyp]AS[Chg]QS[tBuAla]-{Doxorubicin(3'-N)}) | 25 |  | > 100 | 100
4 | COc1cccc2c1C(=O)c1c(O)c3c(c(O)c1C2=O)C[C@@](O)(C(=O)CO)C[C@@H]3O[C@H]1C[C@H](NC(=O)[C@H](CC(C)C)NC(=O)[C@H](CO)NC(=O)[C@H](CCC(N)=O)NC(=O)[C@@H](NC(=O)[C@H](CO)NC(=O)[C@H](C)NC(=O)[C@@H]2C[C@@H](O)CN2C(C)=O)C2CCCCC2)[C@H](O)[C@H](C)O1 [Ac-(4-trans-L-Hyp)ASChgQ-SL-DOX (3'), [N-Ac-(4-trans-L-Hyp)]-Ala-Ser-Chg-Gln-Ser-Leu-Dox] (HELM PEPTIDE1{[ac].[Hyp].A.S.[O=C([C@@H](N[*:1])C1CCCCC1)[*:2]].Q.S.L.[COc1cccc2c1C(=O)c1c(O)c3c(c(O)c1C2=O)C[C@@](O)(C(=O)CO)C[C@@H]3O[C@H]1C[C@H](N[*:1])[C@H](O)[C@H](C)O1]}$$$$V2.0) | 20 |  | 90 | 4.5
